The source of these data is US8143237B2, “Anti-cancer drugs, and uses relating for malignant melanoma and other cancers” (Kasina Laila Innova Pharmaceuticals Private Limited, priority 2009, dated 2012).

≈ marks a conversion by molar mass, not a printed value. Entries after “also recorded” stand apart in the source; their conditions may differ.

The subject of test [1] is MCF-7 (ER+) breast tumor cells. The test can be described thus: MTT based cell proliferation assay, MCF-7. Particulars: Homo sapiens, MCF7, read-out: Anti-tumor growth potential (IC50) in MCF-7. The method, then:
(§1) MTT [3-(4,5-dimethylthiazol-2-yl)-2,5-diphenyltetrazolium bromide] incorporation based cell proliferation assay was performed using standard procedure. The cytotoxic efficacies of the various selenopheno triazene compounds (compounds 1 to 16) was evaluated in both human malignant melanoma A375 cells and mouse malignant melanoma B16 F0 cells by MTT cell proliferation assay kit (Roche Applied Sciences, Germany). The assay was carried out according to the instruction provided by the vendor. Briefly, equal numbers of cells was plated in 96-well flat-bottomed plates and were incubated with both DTIC and the test compounds (compounds 1 to 16) at various concentrations for a period of three days. Vehicle control culture wells received only a maximum of 0.5% DMSO. Thereafter, 0.5 mg/ml of MTT reagent was added to each well and the microplate was incubated further for 4 h at 37° C. in presence of 5% CO2. […] After complete solubilization of the formazan crystals, the absorbance was read at 540 nm in a microplate reader (BioRad, USA). […]
(§2) Anti-tumor growth potential of Compound 1 and DTIC were evaluated in various human tumor cells such as A549 lung tumor cells, DU145 prostate tumor cells, HT29 colon cancer cells and MCF-7 (ER^+) breast tumor cells in vitro, by using MTT based cell proliferation assay as described earlier (example 17). […]

Test [2] has as its system A549 lung tumor cells. The test can be described thus: MTT based cell proliferation assay, A549. To be noted: Homo sapiens, read-out: Anti-tumor growth potential (IC50) in A549. The method, then: as §1, §2
Test [3] deals with B16 F0 melanoma xenograft. Description: B16 F0 melanoma xenograft model of C57B6J mice. Format: in vivo, mouse. Particulars: fourteen days, tumor weight. The method, then:
In vivo efficacy of compound 1 against melanoma growth was evaluated in B 16 F0 melanoma xenograft model of C57B6J mice. C57B6J mice of 6 weeks age (body weight 18-22 g) were purchased from National Institute of Nutrition (NIN), Hyderabad (India). Animals study protocols were approved by Institutional Ethics Committee (IAEC). All the studies were performed in compliance with the Committee for the Purpose of Control and Supervision of Experiments on Animals (CPCSEA) guidelines and OECD guidelines. Animals were allowed free access to standard feed and provided charcoal filtered and UV exposed water ad libitum. The animals were maintained at a controlled temperature (24-26° C.), humidity (45-70%), and 12 h/12 h of light/dark cycle.
To induce the melanoma tumor formation, sub-confluent B16F0 cells were harvested by brief trypsinization and 1×10^6 cells were injected subcutaneously in 0.2 ml phosphate-buffered saline. Drug treatment was started after development of palpable tumors (3-5 days after implantation of the cells). Drugs were prepared in phosphate-buffered saline (10% DMSO, v/v) and either 75 mg/kg of DTIC or 25 mg/kg of compound 1 was administered daily through intra-peritoneal route. Vehicle treated control animals received only 10% DMSO in phosphate buffered saline. After fourteen days of treatment, the animals were sacrificed by CO2 inhalation and tumors were excised and weighed.

The test system of test [4] is Human umbilical vein endothelial cells (HUVEC). Description: Endothelial cell migration assay. Particulars: 5 and 10 μg/ml, 18 h. Format: cell-based. The method, then: The methodology of endothelial cell migration assay was essentially the same as described earlier with some modifications (Sengupta, K et al., Mol. Cancer. Res. 2004; 2: 150-158.). FALCON™ Cell Culture inserts (Becton Dickinson, USA) with 8 μm-pores in their PET membrane was coated with 0.1 mg/ml of collagen. Human umbilical vein endothelial cells (HUVEC) were added to the cell culture inserts (Becton Dickinson) at a density of 5×10^4 cells/insert. Cells were allowed to migrate through the insert for 18 h in presence of different concentrations of either DTIC or Compound 1. The control culture containing migration assembly received only 0.1% DMSO. […] The membranes of the inserts were then mounted on glass slides. Cells migrated through the membrane pores were counted in 20 random fields under Nikon Eclipse TS 100 microscope at 20× objective.

The test system is the same in test [5]. Description: In vitro endothelial capillary tube formation assay. Format: cell-based. Particulars: 16 h. The method, then: In vitro capillary formation assay was performed with Human umbilical vein endothelial cells (HUVEC), cultured on 10 mg/ml basement membrane extract (BME-Cultrex®, R&D Systems, USA) bed. The protocol of in vitro endothelial tube formation assay was the same as described earlier with some modifications (Diana G et al., J. Cell Biol. 1995; Volume 130: 207-215.). Briefly, four hundred microliters of Cultrex was coated at 4° C. in each well of 24-well culture plate and allowed to gel at 37° C. for 1 h. HUVECs were plated at a density of 7.5×10^4 cells per well with 400 μl of DMEM supplemented with 10% fetal bovine serum and 4.5 g/l D-glucose. The cells were then treated with either DTIC or Compound 1 at desired concentration as indicated for 16 hours. Vehicle control cultures received only 0.1% DMSO. Pictures were taken under a Nikon Eclipse TS 100 microscope equipped with a Nikon Coolpix camera.

In test [6] the test system is malignant melanoma. To be noted: single-agent, malignant melanoma patients; cited from earlier work.

Regarding `Cc1[se]c(C(N)=O)cc1/N=N/N(C)C` [Compound 1, 4-[(dimethylamino)diazenyl]-5-methylselenophene-2-carboxamide], the IC50 in test [1] came out at 7.03 µg/mL (≈ 27.1 µM); in test [2] it was 7.68 µg/mL (≈ 29.6 µM). In addition, the “Inhibition in tumor growth, mouse melanoma xenograft model of C57B6J mice” value in test [3] (25 mg/kg daily intra-peritoneal) amounted to 31.2%. Further, the “Migration of human endothelial cells (HUVEC)” value in test [4] was “significant inhibition of migration; also recorded: inhibited endothelial cell migration”. The “Endothelial capillary-like tube formation” value in test [5] (5 and 10 μg/ml) is listed as “inhibition of capillary formation in a dose dependent manner; also recorded: exhibited anti-angiogenic properties”.

For the compound `CN(C)N=Nc1[nH]cnc1C(N)=O` [DTIC, 5-(3,3-dimethyl-1-trizeno)-imidazole-4-carboxamide, reference compound], the figures for the IC50 in test [1] and in test [2] were 85.1 µg/mL (≈ 467 µM) and 95 µg/mL (≈ 521 µM), respectively. The “Inhibition in tumor growth, mouse melanoma xenograft model of C57B6J mice” value in test [3] (75 mg/kg daily intra-peritoneal) amounted to 17%. For the same compound, the “Endothelial capillary-like tube formation” value in test [5] (100 μg/ml) is listed as “promoted capillary formation; also recorded: could not inhibit the endothelial capillary formation”. Moreover, the Complete responses result in test [6] is listed as “less than 5 % of patients”.

A word on the IC50: it is the point on the concentration scale where inhibition reaches its midpoint.
